Measurements from the supplement of paper PMC10307832.

Assays:
Assay in all cases: relative viability (nuclei count vs DMSO), 5 days (fraction); higher = more cells survive
Alpelisib + Lapatinib = compound: Cc1nc(NC(=O)N2CCC[C@H]2C(N)=O)sc1-c1ccnc(C(C)(C)C(F)(F)F)c1 [Alpelisib] + CS(=O)(=O)CCNCc1ccc(-c2ccc3ncnc(Nc4ccc(OCc5cccc(F)c5)c(Cl)c4)c3c2)o1 [Lapatinib] (partner 2 µM)
Procedure, shortened: (§1)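 Each reported value is a median over duplicate plates. It expresses relative viability: treated-well nuclei count divided by vehicle-well nuclei count. Lung cancer cell lines in 1536-well plates were dosed by pin tool a day after seeding, alone with one drug or with a fixed anchor-drug dose plus five library-drug doses (not always all listed) in √10 steps, and nuclei were counted after 5 days.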

Alpelisib + Dasatinib = compound: Cc1nc(NC(=O)N2CCC[C@H]2C(N)=O)sc1-c1ccnc(C(C)(C)C(F)(F)F)c1 [Alpelisib] + Cc1nc(Nc2ncc(C(=O)Nc3c(C)cccc3Cl)s2)cc(N2CCN(CCO)CC2)n1 [Dasatinib] (partner 0.075 µM)
Procedure, shortened: as §1

Alpelisib + Linsitinib = compound: Cc1nc(NC(=O)N2CCC[C@H]2C(N)=O)sc1-c1ccnc(C(C)(C)C(F)(F)F)c1 [Alpelisib] + C[C@]1(O)C[C@@H](c2nc(-c3ccc4ccc(-c5ccccc5)nc4c3)c3c(N)nccn32)C1 [Linsitinib] (partner 1 µM)
Procedure, shortened: as §1

Vemurafenib + AZD7762 = compound: CCCS(=O)(=O)Nc1ccc(F)c(C(=O)c2c[nH]c3ncc(-c4ccc(Cl)cc4)cc23)c1F [Vemurafenib] + NC(=O)Nc1cc(-c2cccc(F)c2)sc1C(=O)N[C@H]1CCCNC1 [AZD7762] (partner 0.2 µM)
Procedure, shortened: as §1

Cell Line	relative viability (Alpelisib + Lapatinib; first compound 0.04 µM)	relative viability (Alpelisib + Lapatinib; first compound 0.1265 µM)	relative viability (Alpelisib + Lapatinib; first compound 0.4 µM)	relative viability (Alpelisib + Lapatinib; first compound 1.265 µM)	relative viability (Alpelisib + Lapatinib; first compound 4 µM)	relative viability (Alpelisib + Dasatinib; first compound 0.04 µM)	relative viability (Alpelisib + Dasatinib; first compound 0.1265 µM)	relative viability (Alpelisib + Dasatinib; first compound 0.4 µM)	relative viability (Alpelisib + Dasatinib; first compound 1.265 µM)	relative viability (Alpelisib + Dasatinib; first compound 4 µM)	relative viability (Alpelisib + Linsitinib; first compound 0.04 µM)	relative viability (Alpelisib + Linsitinib; first compound 0.1265 µM)	relative viability (Alpelisib + Linsitinib; first compound 0.4 µM)	relative viability (Alpelisib + Linsitinib; first compound 1.265 µM)	relative viability (Alpelisib + Linsitinib; first compound 4 µM)	relative viability (Vemurafenib + AZD7762; first compound 0.03162 µM)	relative viability (Vemurafenib + AZD7762; first compound 0.1 µM)	relative viability (Vemurafenib + AZD7762; first compound 0.3162 µM)	relative viability (Vemurafenib + AZD7762; first compound 1 µM)
NCI-H2228	1.02	0.788	1.07	0.794	0.486	0.519	0.478	0.414	0.279	0.175	0.762	0.496	0.564	0.517	0.287	–	–	–	–
SK-MES-1	0.454	0.463	0.483	0.409	0.37	0.332	0.334	0.438	0.17	0.191	1.13	1.04	1.22	0.939	0.99	–	–	–	–
SW 900	–	–	–	–	–	0.534	0.58	0.612	0.578	0.518	–	–	–	–	–	0.575	0.469	0.618	0.563
EBC-1	0.21	0.184	0.211	0.238	0.232	–	–	–	–	–	0.81	0.822	1.02	0.825	0.793	–	–	–	–
NCI-H2023	0.717	0.617	0.312	0.58	0.495	0.484	0.537	0.483	0.244	0.304	0.612	0.634	0.628	0.574	0.444	–	–	–	–
NCI-H1299	0.977	0.981	0.997	1.03	1.02	–	–	–	–	–	0.975	0.984	1.14	0.866	0.843	–	–	–	–
COR-L23	1.03	0.896	1.14	0.781	0.606	0.436	0.392	0.535	0.278	0.292	0.836	0.889	0.856	0.69	0.592	–	–	–	–
NCI-H1623	–	–	–	–	–	0.528	0.496	0.513	0.414	0.353	–	–	–	–	–	–	–	–	–
NCI-H441	–	–	–	–	–	0.525	0.72	0.562	0.311	0.358	0.734	0.403	0.698	0.524	0.492	1.09	1.1	1.16	1.03
NCI-H1650	0.718	0.738	0.806	0.62	0.794	0.316	0.309	0.322	0.257	0.271	–	–	–	–	–	–	–	–	–
ChaGo-K-1	–	–	–	–	–	0.546	0.592	0.547	0.487	0.452	–	–	–	–	–	0.818	0.853	0.738	0.882
NCI-H522	–	–	–	–	–	0.952	0.772	0.786	0.709	0.647	–	–	–	–	–	0.797	0.855	0.755	0.869
NCI-H1648	–	–	–	–	–	–	–	–	–	–	–	–	–	–	–	–	0.571	1.23	0.779
A549	0.915	0.857	0.866	0.637	0.53	–	–	–	–	–	0.647	–	0.577	0.5	0.445	–	–	–	–
Calu-6	1.1	1.09	1.12	0.996	0.952	–	–	–	–	–	0.906	0.978	1.03	0.806	0.912	–	–	–	–
